In paper PMC8119466, “A screen of FDA-approved drugs identifies inhibitors of protein tyrosine phosphatase 4A3 (PTP4A3 or PRL-3)” (Scientific Reports, 2021):
Where a name gives a salt, the structure may show the parent alone. Read-outs that look alike come from different tables or passages of the source.

How the values were obtained:
Type in all cases: biochemical
recombinant PRL-1 = molecular target: T1, recombinant PRL-1 (Homo sapiens, UniProt Q93096); assay: In vitro phosphatase assay (DiFMUP hydrolysis), PRL-1; also: test concentration or dose not given here
T1 construct: 6xHis (N, cleaved yes); made in house; host or cells: E. coli One Shot BL21 Star
T1 sequence (Q93096 1-173): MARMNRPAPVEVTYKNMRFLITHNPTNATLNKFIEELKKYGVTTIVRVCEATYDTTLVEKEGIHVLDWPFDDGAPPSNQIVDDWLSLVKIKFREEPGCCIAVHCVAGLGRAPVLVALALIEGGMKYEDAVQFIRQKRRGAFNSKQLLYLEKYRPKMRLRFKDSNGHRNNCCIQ

recombinant PRL-3 = molecular target: T2, recombinant PRL-3 (Homo sapiens, UniProt O75365); assay: In vitro phosphatase assay (DiFMUP hydrolysis), PRL-3; also: test concentration or dose not given here
T2 construct: 6xHis (N, cleaved yes); made in house; host or cells: E. coli One Shot BL21 Star

recombinant PRL-2 = molecular target: T3, recombinant PRL-2 (Homo sapiens, UniProt Q12974); assay: In vitro phosphatase assay (DiFMUP hydrolysis), PRL-2;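 also: PRL-2 activity read as DiFMUP hydrolysis after 20 min at room temperature with drug, enzyme first pre-reduced at 4 °C for 20 min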
T3 construct: 6xHis (N, cleaved yes); made in house; host or cells: E. coli One Shot BL21 Star
T3 sequence (Q12974 1-167): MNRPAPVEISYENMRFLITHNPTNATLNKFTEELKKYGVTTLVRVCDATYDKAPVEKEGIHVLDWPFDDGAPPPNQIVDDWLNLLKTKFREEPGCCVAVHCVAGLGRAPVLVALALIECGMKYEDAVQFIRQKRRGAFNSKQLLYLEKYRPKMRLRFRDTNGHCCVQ

[1] = FDA-approved drug screen, activity compared to DMSO
[2] = FDA-approved drug screen, compared to DMSO

T2 sequence (O75365 whole entry): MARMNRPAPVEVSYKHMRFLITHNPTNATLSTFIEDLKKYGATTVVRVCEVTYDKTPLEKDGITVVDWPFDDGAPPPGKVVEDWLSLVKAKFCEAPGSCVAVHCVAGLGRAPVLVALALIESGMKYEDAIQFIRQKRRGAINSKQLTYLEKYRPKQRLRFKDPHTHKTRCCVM

Molecule	% Phosphatase Activity (compared to DMSO) PRL-1 (recombinant PRL-1; [1])	% Phosphatase Activity (compared to DMSO) PRL-3 (recombinant PRL-3; [1])	% Phosphatase Activity (compared to DMSO) PRL-2 (recombinant PRL-2; [1])	% Phosphatase Activity (compared to DMSO) PRL-1 (recombinant PRL-1; [2])	% Phosphatase Activity (compared to DMSO) PRL-3 (recombinant PRL-3; [2])	% Phosphatase Activity (compared to DMSO) PRL-2 (recombinant PRL-2; [2])	also measured
CC[C@@H]1C(=O)N(C)c2cnc(Nc3ccc(C(=O)N[C@H]4CC[C@H](N5CCN(CC6CC6)CC5)CC4)cc3OC)nc2N1C(C)C [Volasertib (BI 6727)]	97%	87%	112%	–	–	–	–
CCOC(=O)N[C@@H]1CC[C@@H]2[C@@H](C1)C[C@H]1C(=O)O[C@H](C)[C@H]1[C@H]2/C=C/c1ccc(-c2cccc(F)c2)cn1 [Vorapaxar]	95%	86%	73%	–	–	–	–
O=C(CCCCCCC(=O)Nc1ccccc1)NO [Vorinostat (SAHA, MK0683)]	98%	92%	89%	–	–	–	–
CCn1c(=O)c(-c2cc[nH]n2)cc2c(C)nc(N)nc21 [Voxtalisib (XL765, SAR245409)]	7254%	4492%	5267%	–	–	–	–
Cc1cccc(C)c1N=C1NCCCS1 [Xylazine HCl]	–	–	–	–	–	–	% Phosphatase Activity (compared to DMSO) PRL-1 (recombinant PRL-1): 110%; % Phosphatase Activity (compared to DMSO) PRL-3 (recombinant PRL-3): 91%; % Phosphatase Activity (compared to DMSO) PRL-2 (recombinant PRL-2): 112%
Cc1cc(C(C)(C)C)cc(C)c1CC1=NCCN1 [Xylometazoline HCl]	98%	88%	117%	–	–	–	–
O=C[C@H](O)[C@@H](O)[C@H](O)CO [Xylose]	115%	68%	102%	–	–	–	–
COCC[n+]1c2c(n(Cc3cnccn3)c1C)C(=O)c1ccccc1C2=O.[Br-] [YM155 (Sepantronium Bromide)]	11%	5%	13%	–	–	–	–
COc1cc(C(=O)NS(=O)(=O)c2ccccc2C)ccc1Cc1cn(C)c2ccc(NC(=O)OC3CCCC3)cc12 [Zafirlukast]	68%	48%	66%	–	–	–	–
Nc1ccn([C@H]2CC[C@@H](CO)O2)c(=O)n1 [Zalcitabine]	93%	89%	105%	–	–	–	–
CC(C(=O)O)c1ccc2c(c1)CC(=O)c1ccccc1S2 (stereo not drawn) [Zaltoprofen]	109%	86%	113%	–	–	–	–
CC(=O)N[C@H]1[C@H]([C@H](O)[C@H](O)CO)OC(C(=O)O)=C[C@@H]1N=C(N)N [Zanamivir]	90%	115%	98%	–	–	–	–
COc1nc(C)cnc1NS(=O)(=O)c1cccnc1-c1ccc(-c2nnco2)cc1 [Zibotentan (ZD4054)]	99%	94%	97%	–	–	–	–
Cc1cn([C@H]2C[C@H](N=[N+]=[N-])[C@@H](CO)O2)c(=O)[nH]c1=O [Zidovudine]	100%	85%	112%	–	–	–	–
CC(c1cc2ccccc2s1)N(O)C(N)=O (stereo not drawn) [Zileuton]	96%	87%	86%	–	–	–	–
Cl.O=C1Cc2cc(CCN3CCN(c4nsc5ccccc45)CC3)c(Cl)cc2N1 [Ziprasidone HCl]	91%	80%	91%	–	–	–	–
CN(C)CCc1c[nH]c2ccc(C[C@H]3COC(=O)N3)cc12 [Zolmitriptan]	111%	80%	86%	–	–	–	–
Cc1ccc(-c2nc3ccc(C)cn3c2CC(=O)N(C)C)cc1 [Zolpidem]	98%	85%	97%	–	–	–	–
NS(=O)(=O)Cc1noc2ccccc12 [Zonisamide]	104%	78%	89%	–	–	–	–
Cl.Cl.Cl.O[C@@H](COc1cccc2ncccc12)CN1CCN([C@@H]2c3ccccc3[C@@H]3[C@H](c4ccccc42)C3(F)F)CC1 [Zosuquidar (LY335979) 3HCl]	107%	91%	98%	–	–	–	–

Molecule	% Phosphatase Activity (compared to DMSO) PRL-1 (recombinant PRL-1; [1])	% Phosphatase Activity (compared to DMSO) PRL-3 (recombinant PRL-3; [1])	% Phosphatase Activity (compared to DMSO) PRL-2 (recombinant PRL-2; [1])	% Phosphatase Activity (compared to DMSO) PRL-1 (recombinant PRL-1; [2])	% Phosphatase Activity (compared to DMSO) PRL-3 (recombinant PRL-3; [2])	% Phosphatase Activity (compared to DMSO) PRL-2 (recombinant PRL-2; [2])	also measured
O[C@H]1[C@H](O)[C@@H](O)[C@H](O)[C@@H](O)[C@H]1O [i-Inositol]	–	–	–	94%	87%	112%	–
NCCCCCC(=O)O [(6-)ε-Aminocaproic acid]	–	–	–	110%	75%	115%	–
Atosiban Acetate	–	–	–	86%	90%	80%	–
Bacitracin	–	–	–	96%	82%	94%	–
Bivalirudin Trifluoroacetate	–	–	–	86%	88%	81%	–
Capreomycin Sulfate	–	–	–	95%	113%	95%	–
Carbazochrome sodium sulfonate (AC-17)	–	–	–	74%	59%	68%	–
Eptifibatide Acetate	–	–	–	88%	91%	82%	–
Escin	–	–	–	72%	95%	73%	–
GHRP-2	–	–	–	98%	100%	102%	–
Heparin sodium	–	–	–	86%	78%	72%	–
Isosorbide	–	–	–	90%	69%	89%	–
Nafarelin Acetate	–	–	–	91%	91%	91%	–
Oxytocin (Syntocinon)	–	–	–	82%	81%	68%	–
S-Ruxolitinib (INCB018424)	–	–	–	113%	104%	127%	–
Spiramycin	86%	68%	90%	–	–	–	–
Teneligliptin hydrobromide	95%	90%	100%	–	–	–	–
Tyloxapol	89%	90%	83%	–	–	–	–
Vitamin E	108%	90%	90%	–	–	–	–
